Laboratory results published in patent publication US11440906B2, “Biguanide derivatives and their rearrangement products for use in the treatment of cancer” (CENTRE NATIONAL DE LA RECHERCHE SCIENTIFIQUE, priority 2017, dated 2022).
Where two headings read alike, the source gives them in different places.

System: A375 Sensitive cells
Assay: Viability test, trypan blue exclusion, A375 Sensitive cells
Format: cell-based, human
Settings: Homo sapiens, A-375, viable cells as percentage of DMSO control
Text: Different melanoma cell lines were purchased from the American Tissue Culture Collection: A375 and WM9 cells are mutated on B-Raf, CDKN2A and PTEN proteins; SKmel28 cells are mutated on B-Raf and P53 proteins; 1205Lu cells are mutated on B-Raf and PTEN proteins; G-361 cells are mutated on B-Raf and CDKN2A proteins; C8161 cells are mutated on B-Raf and K-Ras proteins; WM3912 cells are mutated on B-Raf and CDKN2A proteins; MeWo cells are mutated on P53 and CDKN2A proteins; WM3918 presents no mutations on characteristic proteins.
For trypan blue staining, […] of cells (melanoma and normal human cells) were aseptically transferred to a 1.5 mL clear Eppendorf tube and incubated for 3 min at room temperature with an equal volume of 0.4% trypan blue solution. Viable cells were counted and the results are expressed as the percentage of the value of control cells. All the experiments are performed 3 times in triplicate.
A375 Sensitive cells were treated with different concentrations of the synthesized molecules (5.0 μM or 10 μM) for different times (24 hr or 48 hr) or with DMSO (Control) for 12 or 48 hr. At the end of the stimulation, viable cells were counted using the trypan blue dye exclusion method. The results are normalized as percentages compare to the control.
A375 Sensitive cells were treated with 5 μM of CRO15 for different times (2 hr, 4 hr, 6 hr, 8 hr, 12 hr, 24 hr or 48 hr) or with 5 μM of PLX4032 (B-Raf inhibitor) for 48 hr or with DMSO (Control) for 48 hr. At the end of stimulation, viable cells were counted using the trypan blue dye exclusion method. The results are normalized as percentages compare to the control and data means±SEM of three independent experiments performed in triplicate *p<0.05; **p<0.01; ***p<0.001.
A375 Sensitive cells were treated with different concentrations of CRO15 (0.5 μM, 2.5 μM, 5.0 μM, 7.5 μM, 50 μM) for 48 hr or with 5 μM of PLX4032 (B-Raf inhibitor) for 48 hr or with DMSO (Control) for 48 hr. At the end of the stimulation, viable cells were counted using the trypan blue dye exclusion method. The results are normalized as percentages compare to the control and data means±SEM of three independent experiments performed in triplicate *p<0.05; **p<0.01; ***p<0.001.
A375 sensitive and resistant melanoma cells were treated with 5 μM of CRO15 for 48 hr or with 5 μM of PLX4032 for 48 hr or with DMSO (Control). At 48 hours, viable cells were counted using the trypan blue dye exclusion method. The results are normalized as percentages compare to the control and data means±SEM of three independent experiments performed in triplicate *p<0.05; **p<0.01; ***p<0.001.

[1] = 24 h, read-out: Viab A375 5 μM/ 24 h
[2] = 48 h, read-out: Viab A375 5 μM/ 48 h
[3] = 24 h, read-out: Viab A375 10 μM/ 24 h
[4] = 48 h, read-out: Viab A375 10 μM/ 48 h

Row | Structure (SMILES) | viability at 5 µM [1] | viability at 5 µM [2] | viability at 10 µM [3] | viability at 10 µM [4]
1 | N=C(NC(=N)c1ccccc1)Nc1nc2ccccc2s1 [MTF 248, N—(N-(benzo[d]thiazol-2-yl)carbamimidoyl)benzimidamide] | 100% | 100% | 80% | 138%
2 | Nc1nc(Nc2ccccc2SSc2ccccc2Nc2nc(N)nc(-c3ccc(I)cc3)n2)nc(-c2ccc(I)cc2)n1 [MTF 328, N2,N2′-(disulfanediylbis(2,1-phenylene))bis(6-(4-iodophenyl)-1,3,5-triazine-2,4-diamine)] | 50% | 9.4% | 27.8% | 3.4%
3 | Nc1nc(Nc2ccccc2SSc2ccccc2Nc2nc(N)nc(-c3ccccc3F)n2)nc(-c2ccccc2F)n1 [MTF 452, N2,N2′-(disulfanediylbis(2,1-phenylene))bis(6-(2-fluorophenyl)-1,3,5-triazine-2,4-diamine)] | 43.6% | 60.5% | 22.3% | 40.3%
4 | N=C(NC(=N)c1ccccn1)Nc1nc(-c2ccccc2)cs1 [MTF 263, N—(N-(4-phenylthiazol-2-yl)carbamimidoyl)picolinimidamide] | 89.5% | 91% | 100% | 66%
5 | COc1cc(C(=N)NC(=N)Nc2nc3ccccc3s2)cc(OC)c1OC [MTF 382, N—(N-(benzo[d]thiazol-2-yl)carbamimidoyl)-3,4,5-trimethoxybenzimidamide] | 14.7% | 1.8% | 17.4% | 4.5%
6 | N=C(NC(=N)c1ccnc(Cl)c1)Nc1nc2ccccc2s1 [MTF 380, N—(N-(benzo[d]thiazol-2-yl)carbamimidoyl)-2-chloroisonicotinimidamide] | 47.3% | 4.9% | 36.2% | 2.3%
7 | Nc1nc(Nc2ccccc2SSc2ccccc2Nc2nc(N)nc(-c3cccs3)n2)nc(-c2cccs2)n1 [MTF 396, N2,N2′-(disulfanediylbis(2,1-phenylene))bis(6-(thiophen-2-yl)-1,3,5-triazine-2,4-diamine)] | 19.2% | 12.1% | 7.5% | 0%
8 | N=C(NC(=N)c1ccccc1Cl)Nc1nc2ccccc2s1 [MTF 244, N—(N-(benzo[d]thiazol-2-yl)carbamimidoyl)-2-chlorobenzimidamide] | 81.6% | 68% | 84.9% | 68.4%
9 | N=C(NC(=N)c1ccccc1Br)Nc1nc2ccccc2s1 [MTF 250, N—(N-(benzo[d]thiazol-2-yl)carbamimidoyl)-2-bromobenzimidamide] | 25.4% | 8.9% | 12% | 2.4%
10 | Nc1nc(Nc2ccccc2SSc2ccccc2Nc2nc(N)nc(-c3c(Cl)cccc3Cl)n2)nc(-c2c(Cl)cccc2Cl)n1 [MTF 455, N2,N2′-(disulfanediylbis(2,1-phenylene))bis(6-(2,6-dichlorophenyl)-1,3,5-triazine-2,4-diamine)] | 89% | 108% | 32.3% | 69.5%
11 | Nc1nc(Nc2cc([N+](=O)[O-])ccc2O)nc(C(Cl)(Cl)Cl)n1 [MTF 377, 2-((4-amino-6-(trichloromethyl)-1,3,5-triazin-2-yl)amino)-4-nitrophenol] | 27.3% | 34.4% | 22.7% | 33.5%
12 | Nc1nc(Nc2ccccc2SSc2ccccc2Nc2nc(N)nc(-c3cnccn3)n2)nc(-c2cnccn2)n1 [MTF 348, N2,N2′-(disulfanediylbis(2,1-phenylene))bis(6-(pyrazin-2-yl)-1,3,5-triazine-2,4-diamine)] | 102% | 79.6% | 110% | 35.8%
13 | Nc1nc(Nc2ccccc2SSc2ccccc2Nc2nc(N)nc(-c3ccncc3)n2)nc(-c2ccncc2)n1 [MTF 329, N2,N2′-(disulfanediylbis(2,1-phenylene))bis(6-(pyridin-4-yl)-1,3,5-triazine-2,4-diamine)] | 96.2% | 69.7% | 74.2% | 22.5%
14 | Nc1nc(Nc2ccc(F)cc2SSc2cc(F)ccc2Nc2nc(N)nc(C(Cl)(Cl)Cl)n2)nc(C(Cl)(Cl)Cl)n1 [MTF 234, N2,N2′-(disulfanediylbis(4-fluoro-2,1-phenylene))bis(6-(trichloromethyl)-1,3,5-triazine-2,4-diamine)] | 29.6% | 17.4% | 9.6% | 7.8%
15 | N=C(NC(=N)c1ccncc1)Nc1nc(-c2ccccc2)cs1 [MTF 274, N—(N-(4-phenylthiazol-2-yl)carbamimidoyl)isonicotinimidamide] | 83% | 93% | 84% | 89%
16 | N=C(NC(=N)c1ccc(I)cc1)Nc1nc2ccccc2s1 [MTF 247, N—(N-(benzo[d]thiazol-2-yl)carbamimidoyl)-4-iodobenzimidamide] | 100% | 135% | 122% | 100%
17 | Nc1nc(Nc2ccccc2SSc2ccccc2Nc2nc(N)nc(-c3ccc(Cl)cc3)n2)nc(-c2ccc(Cl)cc2)n1 [MTF 327, N2,N2′-(disulfanediylbis(2,1-phenylene))bis(6-(4-chlorophenyl)-1,3,5-triazine-2,4-diamine)] | 19.4% | 14.5% | 23.7% | 14.5%
18 | Cc1csc(NC(=N)NC(=N)c2cccc(Br)c2)n1 [MTF 288, 3-bromo-N—(N-(4-methylthiazol-2-yl)carbamimidoyl)benzimidamide] | 50% | 96.7% | 70% | 53.5%
19 | N=C(NC(=N)c1cccc(Br)c1)Nc1nc2ccccc2s1 [MTF 242, N—(N-(benzo[d]thiazol-2-yl)carbamimidoyl)-3-bromobenzimidamide] | 29.2% | 8.1% | 13.4% | 2.9%
20 | N=C(NC(=N)c1cccc(Br)c1)Nc1nc(-c2ccccc2)cs1 [MTF 256, 3-bromo-N—(N-(4-phenylthiazol-2-yl)carbamimidoyl)benzimidamide] | 93.9% | 60% | 66% | 95.7%
21 | Nc1nc(Nc2ccccc2SSc2ccccc2Nc2nc(N)nc(-c3cccc(F)c3)n2)nc(-c2cccc(F)c2)n1 [MTF 320] | 18.3% | 11.5% | 10.8% | 8.5%
22 | Cc1csc(NC(=N)NC(=N)c2ccccn2)n1 [MTF 289, N—(N-(4-methylthiazol-2-yl)carbamimidoyl)picolinimidamide] | 81.1% | 90.4% | 78.7% | 58.2%
23 | CC1(C)C=Cc2cc(C(=N)NC(=N)Nc3nc4ccccc4s3)ccc2O1 [MTF 388, N—(N-(benzo[d]thiazol-2-yl)carbamimidoyl)-2,2-dimethyl-2H-chromene-6-carboximidamide] | 61.4% | 65.1% | 55.7% | 18.4%
24 | Cc1nc(NC(=N)NC(=N)c2ccccc2)sc1C [MTF 303, N—(N-(4,5-dimethylthiazol-2-yl)carbamimidoyl)benzimidamide] | 85.6% | 44.2% | 66.1% | 39.1%
25 | Cc1ccc(C(=N)NC(=N)Nc2nc3ccccc3s2)cc1 [MTF 246, N—(N-(benzo[d]thiazol-2-yl)carbamimidoyl)-4-methylbenzimidamide] | 137% | 91% | 94% | 115%
